Results taken from US20200032271A1, “COMBINATION THERAPY WITH LIPOSOMAL ANTISENSE OLIGONUCLEOTIDES” (Bio-Path Holdings, Inc., priority 2016, published 2020).
“And” between values parts separate entries of the source, which are not always exact repeats. Equal values may be shown once. [PEt] = P-ethoxy (ethyl phosphotriester) internucleoside linkage

System: peripheral blood and bone marrow blasts
Experiment: Anti-leukemia activity in patients (peripheral blood and bone marrow blasts, response)
Type: in vivo, human
Conditions: for Bone marrow blasts (%) Nadir / Bone marrow blasts (%) Off-Rx / Peripheral blood blasts (%) Off-Rx / Peripheral blood blasts (%) Nadir: individual evaluable patients
Description: Peripheral blood assessments were done at baseline (within 14 days of study start), and on days 1, 8, 15, 22, at completion of cycle one, and as clinically indicated. Bone marrow assessments were done at baseline (within 14 days of study start), at completion of cycle one, cycle 2, and as clinically indicated. Baseline cytogenetics data were obtained before treatment. Molecular analysis was conducted to detect somatic mutations on the baseline bone marrow.
BP1001, as a single agent therapy, decreased >50% peripheral blood blasts in 9 of 21 patients, and decreased >50% bone marrow blasts in 3 of 21 patients (Table 8). […] Four patients completed 2 cycles of treatment and three patients completed 5 cycles of treatment (Table 8). These seven patients had diverse cytogenetics and molecular abnormalities such as JAK2 and NRAS mutations (Table 8). […]

[1] = of 21 evaluable patients, single agent

BP1001: liposome-incorporated P-ethoxy antisense oligodeoxynucleotide (5′-ATATTTGGCGATGGCTTC-3′, SEQ ID NO: 1) specific to grb2 mRNA, in neutral DOPC liposomes (DNA, all [PEt], methylation of C not given here; incorporated in neutral DOPC liposomes)
Bone marrow blasts (%) Nadir (5 mg/m^2, no Ara-C): 10% and 4%
Bone marrow blasts (%) Off-Rx (5 mg/m^2, no Ara-C): 10% and 6%
Peripheral blood blasts (%) Off-Rx (5 mg/m^2, no Ara-C): 1% and 50% and 21% and 97% and 5% and 0%
Bone marrow blasts (%) Nadir (10 mg/m^2, no Ara-C): 76% and None and 38%
Bone marrow blasts (%) Off-Rx (10 mg/m^2, no Ara-C): 76% and 80% and 38%
Peripheral blood blasts (%) Nadir (10 mg/m^2, no Ara-C): 31% and 5% and 43%
Peripheral blood blasts (%) Off-Rx (10 mg/m^2, no Ara-C): 72% and 63% and 74%
Bone marrow blasts (%) Nadir (20 mg/m^2, no Ara-C): 3%
Peripheral blood blasts (%) Nadir (20 mg/m^2, no Ara-C): 0%
Peripheral blood blasts (%) Off-Rx (20 mg/m^2, no Ara-C): 1% and 0%
Bone marrow blasts (%) Nadir (40 mg/m^2, no Ara-C): None (2×) and 54%
Bone marrow blasts (%) Off-Rx (40 mg/m^2, no Ara-C): 36% and 80%
Peripheral blood blasts (%) Nadir (40 mg/m^2, no Ara-C): 3% and None (2×)
Peripheral blood blasts (%) Off-Rx (40 mg/m^2, no Ara-C): 19% and 80% and 97%
Bone marrow blasts (%) Nadir (60 mg/m^2, no Ara-C): 88% and None
Bone marrow blasts (%) Off-Rx (60 mg/m^2, no Ara-C): 88% and 92%
Peripheral blood blasts (%) Nadir (60 mg/m^2, no Ara-C): 93% and 7% and 17%
Peripheral blood blasts (%) Off-Rx (60 mg/m^2, no Ara-C): 98% and 24% and 82%
Bone marrow blasts (%) Nadir (90 mg/m^2, no Ara-C): None and 22%
Bone marrow blasts (%) Off-Rx (90 mg/m^2, no Ara-C): 17% and 22%
Peripheral blood blasts (%) Nadir (90 mg/m^2, no Ara-C): 0% and None (2×)
Peripheral blood blasts (%) Off-Rx (90 mg/m^2, no Ara-C): 0% and 42% and 92%
Peripheral blood blasts (%) Nadir (BP1001 5 mg/m^2, no Ara-C): 0% (2×) and 7% and 5% and 82% and 2%
patients with improvement of leukemia cutis [1]: two
patients with transient decline in blasts [1]: six
patients with ≥50% reduction in peripheral or bone marrow blasts (of 21 evaluable patients, single agent (Part A)): 10
peripheral blasts after four BP1001 infusions (one CML blast crisis patient with T315I, from 81%): 5%
patients with >50% decrease of bone marrow blasts (single agent therapy): 3 of 21
patients with >50% decrease of peripheral blood blasts (single agent therapy): 9 of 21
